# Reference: patent publication US9951060B2, “2-acylaminothiazole derivative or salt thereof” (ASTELLAS PHARMA INC., priority 2014, dated 2018)
# Where a name gives a salt, the structure may show the parent alone.
# How the values were obtained:
# [1] = biological target: T1, human c-Mpl-introduced Ba/F3 cell (Homo sapiens, UniProt P40238); assay: Test Example 2: human c-Mpl-introduced Ba/F3 cell proliferative activity; assay type: cell-based; conditions: concentration exhibiting 30% proliferation; 100% = positive control (Example 315 of Patent Document 1) at 1 μM
# T1 construct: expressed in transfected cells
# T1 sequence (P40238 26-635): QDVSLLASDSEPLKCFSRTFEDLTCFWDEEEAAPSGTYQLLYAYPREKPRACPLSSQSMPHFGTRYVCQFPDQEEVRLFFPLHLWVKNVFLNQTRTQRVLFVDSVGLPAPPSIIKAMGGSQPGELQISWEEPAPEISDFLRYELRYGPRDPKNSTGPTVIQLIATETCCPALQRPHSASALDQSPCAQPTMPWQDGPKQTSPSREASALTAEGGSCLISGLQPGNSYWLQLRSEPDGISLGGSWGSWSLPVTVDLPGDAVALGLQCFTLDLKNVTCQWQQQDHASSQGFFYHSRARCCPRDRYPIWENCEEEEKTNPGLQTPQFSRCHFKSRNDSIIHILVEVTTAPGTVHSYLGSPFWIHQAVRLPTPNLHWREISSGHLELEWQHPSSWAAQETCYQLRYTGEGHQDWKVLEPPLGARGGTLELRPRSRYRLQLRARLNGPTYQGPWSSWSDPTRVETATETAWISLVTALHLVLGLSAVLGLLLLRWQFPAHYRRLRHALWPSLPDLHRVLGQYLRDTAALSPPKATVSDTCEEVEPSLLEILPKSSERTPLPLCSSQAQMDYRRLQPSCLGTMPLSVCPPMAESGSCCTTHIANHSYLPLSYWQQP
# Description: Test Example 2: Evaluation of Human c-Mpl-Introduced Ba/F3 Cell Proliferative Activity
# The human c-Mpl-introduced Ba/F3 cell proliferation action was measured by the following method.
# As a positive control, 1-(5-{[4-(4-chlorothiophen-2-yl)-5-{[(2R)-2-methylpyrrolidin-1-yl]methyl}-1,3-thiazol-2-yl]carbamoyl}-3-fluoropyridin-2-yl)piperidine-4-carboxylic acid hydrochloride disclosed as Example 315 in Patent Document 1, represented by the formula (A1) above, was used. Further, it is known that the compound has a good human c-Mpl-introduced Ba/F3 cell proliferative activity as disclosed in Table 1 in Patent Document 1.
# a) Construction of Vector Expressing Human c-Mpl Receptor
# A human c-Mpl receptor gene (GenBank Accession No.: M90102.1) was transfected into an expression vector pEF-BOS (Nucleic Acids Research, 18: pp 5322 (1990)).
# b) Construction of Cell Stably Expressing Human c-Mpl Receptor
# A vector expressing a human c-Mpl receptor was introduced into a Ba/F3 cell (RIKEN BRC: RCB0805). For the introduction, an electroporation method was used. pEF-BOS-c-mpl (10 μg), pSV2bsr (1 μg, Kaken Pharmaceutical Co., Ltd.) and 1×10^7 of Ba/F3 cells were put into cuvettes with a gap width of 0.4 cm and electroporated under a condition of 1.5 kV (25 μF) in a Gene Pulser (registered trademark) (BioRad). The cells were incubated in an RPMI-1640 medium supplemented with a 0.5% WEHI conditioned medium (BD Biosciences) and 10% fetal bovine serum for 3 days, and thereafter, and the cells were incubated for 30 days in an RPMI-1640 medium, to which 10 μg/mL blasticidin had been further added, thereby acquiring a drug-resistant clone.
# c) Measurement of Cell Proliferative Activity
# The cells obtained in b) above were dispensed into an RPMI-1640 medium supplemented with a 0.5% WEHI conditioned medium and 10% fetal bovine serum, and used. The day before the experiment, the test substances (final concentration of 100 nM to 10 μM) which had been dissolved in a medium for assay (an RPMI-1640 medium supplemented with 10% fetal bovine serum) were added to a 384-well plate (Model No. 781185, Greiner bio-one). The cells after the medium had been replaced with the medium for assay were dispensed to a 384-well plate to which the test substance had been added, to 1×10^4 cells/well, and incubated overnight at 37° C. and 5% CO2. On the experiment day, a solution of a Cell counting kit (Dojindo Laboratories) was added to each well of the 384-well plate, and the cells were incubated for about 5 hours at 37° C. and 5% CO2. Thereafter, the absorbance (an absorbance wavelength of 450 nm) of each well was measured using Safire^2 (registered trademark) (TECAN), and used as an index for the number of cells. Further, as a negative control, a well to which the test substances had not been added was prepared.
# By taking the absorbance of the well to which the test substance had been not added as 0% and taking the absorbance in a case where the positive control had been added to a final concentration of 1 μM as 100%, a cell proliferation rate (%) was calculated from the absorbance of the well to which the test substance had been added.
# [2] = tested on: pelvic nerve stimulation-induced elevation of intravesical pressure; assay: Test Example 4: effect on pelvic nerve stimulation-induced elevation of intravesical pressure in anesthetized rats; assay type: in vivo, rat; conditions: 3 mg/kg intravenous; maximum effect within one hour; anesthetized SD female rats; pre-treatment = 100%
# Description: Test Example 4: Effect on Pelvic Nerve Stimulation-Induced Elevation of Intravesical Pressure in Anesthetized Rats
# The effect of the Example compounds of the present invention in the pelvic nerve electrical stimulation-induced elevation of intravesical pressure using rats as an action of nerve stimulation-dependent bladder contraction in vivo was measured by the following method. That is, SD female rats (Japan SLC, Inc.) were used and its lower abdomen was dissected at the midline under pentobarbital anesthesia (50 mg/kg ip). After ligating and cutting the ureter on both sides, a cannula (PE-50) for measuring the intravesical pressure was inserted into the bladder from the external urethral opening and fixed by a clip. After injecting about 200 μL of saline through the cannula that had been inserted into the bladder, the other side was connected to a pressure transducer to measure the intravesical pressure. Under a stereoscopic microscope observation, the pelvic nerve in the vicinity of the bladder was peeled and an electrode for nerve stimulation (unique Medical) was placed. The abdominal cavity was filled with mineral oil (MP BIOMEDICALS). After placing in a post-operative stabilization period, the pelvic nerve was subjected to electrical stimulation (stimulation voltage: 10 V, stimulation frequency: 8 Hz, pulse width: 0.3 msec, and stimulation time: 10 seconds) to elicit the elevation of intravesical pressure, using an electrical stimulator (Nihon Kohden). By repeating the electrical stimulation at an interval of 2 minutes while adjusting the voltage, the voltage was adjusted to elicit about 50% to 70% elevation of intravesical pressure elicited at 10 V. Thereafter, by repeating the electrical stimulation at an interval of 10 minutes, the increase in the intravesical pressure by electrical stimulation was stabilized three times or more, and the test substance (an administration amount of 3 mg/kg) was then administered from the catheter detained in the vein at a volume of 1 mL/kg, thus measuring an effect of the elevation of the intravesical pressure of the test substance for 1 hour. The test substance was dissolved in water supplemented with 10% dimethylsulfoxide and 10% Cremophor.
# The response was applied to a personal computer through a PowerLab (registered trademark) and analyzed by LabChart (registered trademark). The AUC of each elevation of the intravesical pressure was calculated, the intravesical pressure elevation rate (% of pre) after the treatment with the test substance was calculated by taking an average value of the values measured three times before the treatment with the test substance as 100%, and the maximum effect during a period within one hour after administration of the compound was considered as the effect of the test substance.
# The elevation rates (% of pre) of the intravesical pressure when some Example compounds were administered at 3 mg/kg are shown in Table 4.
SMILES,human c-Mpl-introduced Ba/F3 cell proliferative activity EC30 [1],Increase rate (% of pre) of intravesical pressure [2]
C[C@@H]1CCCN1Cc1sc(NC(=O)c2cnc(N3CCN(CC(=O)O)CC3)cn2)nc1-c1ccc(F)c(C(F)(F)F)c1 [Example 61],1.3 µM,129 % of pre
C[C@@H]1CCCN1Cc1sc(NC(=O)c2cnc(N3CCN(CC(=O)O)CC3)cn2)nc1-c1cc(Cl)cs1 [Example 51],2.6 µM,223 % of pre
"C[C@@H]1CCCN1Cc1sc(NC(=O)c2cnc(N3CCN(CCC(=O)O)C[C@H]3C)cn2)nc1-c1cc(C(F)(F)F)cs1 [Example 3, 3-[(3R)-3-methyl-4-{5-[(5-{[(2R)-2-methylpyrrolidin-1-yl]methyl}-4-[4-(trifluoromethyl)thiophen-2-yl]-1,3-thiazol-2-yl)carbamoyl]pyrazin-2-yl}piperazin-1-yl]propanoic acid dihydrochloride]",0.78 µM,251 % of pre
C[C@@H]1CCCN1Cc1sc(NC(=O)c2cnc(N3CCN(CCC(=O)O)[C@@H](C)C3)cn2)nc1-c1cc(C(F)(F)F)cs1 [Example 95],3 µM,239 % of pre
C[C@@H]1CCCN1Cc1sc(NC(=O)c2cnc(N3CCN(CCC(=O)O)[C@@H](C)C3)cn2)nc1-c1cc(Cl)cs1 [Example 142],4.7 µM,199 % of pre
C[C@@H]1CCCN1Cc1sc(NC(=O)c2cnc(N3CCN(CCC(=O)O)CC3)cn2)nc1-c1ccc(Cl)c(C(F)(F)F)c1 [Example 15],>10 µM,142 % of pre
CCC[C@@H]1CCCN1Cc1sc(NC(=O)c2cnc(N3CCN(CCC(=O)[O-])CC3)cn2)nc1-c1cccc(C(F)(F)F)c1.[Na+] [Example 124],>10 µM,143 % of pre
C[C@@H]1CCCN1Cc1sc(NC(=O)c2cnc(N3CCN(CCC(=O)O)CC3)cn2)nc1-c1cc(Cl)cs1 [Example 82],>10 µM,138 % of pre
CC[C@@H]1CCCN1Cc1sc(NC(=O)c2cnc(N3CCN(CCC(=O)O)[C@H](C)C3)cn2)nc1-c1cc(Cl)cs1 [Example 143],7.8 µM,172 % of pre
COc1c(Cl)cc(-c2nc(NC(=O)c3cnc(N4CCN(CCC(=O)O)CC4)cn3)sc2CN2CCC[C@H]2C)cc1Cl [Example 43],>10 µM,125 % of pre
CCOc1ccc(-c2nc(NC(=O)c3cnc(N4CCN(CCC(=O)O)C[C@H]4C)cn3)sc2CN2CCC[C@H]2CC)cc1C(F)(F)F [Example 133],>10 µM,150 % of pre
CC[C@@H]1CCCN1Cc1sc(NC(=O)c2cnc(N3CCN(CCC(=O)O)C[C@@H]3C)cn2)nc1-c1cc(Cl)cs1 [Example 28],5.3 µM,184 % of pre

# Second part, led by results:
human c-Mpl-introduced Ba/F3 cell proliferative activity EC30 [1],SMILES,Increase rate (% of pre) of intravesical pressure [2]
>10 µM,C[C@@H]1CCCN1Cc1sc(NC(=O)c2cnc(N3CCN(CCC(=O)O)CC3)cn2)nc1-c1cc(F)cc(C(F)(F)F)c1 [Example 49],172 % of pre
>10 µM,C[C@@H]1CCCN1Cc1sc(NC(=O)c2cnc(N3CCN(CC(=O)O)C[C@H]3C)cn2)nc1-c1cc(F)cc(C(F)(F)F)c1 [Example 141],175 % of pre
>10 µM,Cc1cc(OC(F)(F)F)cc(-c2nc(NC(=O)c3cnc(N4CCN(CCC(=O)O)CC4)cn3)sc2CN2CCC[C@H]2C)c1 [Example 46],126 % of pre
>10 µM,CCN(CC)Cc1sc(NC(=O)c2cnc(N3CCN(CCC(=O)O)CC3)cn2)nc1-c1cc(F)cc(C(F)(F)F)c1 [Example 109],180 % of pre
>10 µM,C[C@@H]1CCCN1Cc1sc(NC(=O)c2cnc(N3CCN(CC(=O)O)CC3)cn2)nc1-c1cc(Cl)cc(C(F)(F)F)c1 [Example 13],132 % of pre
>10 µM,COc1cc(-c2nc(NC(=O)c3cnc(N4CCN(CCC(=O)O)CC4)cn3)sc2CN2CCC[C@H]2C)cc(C(F)(F)F)c1 [Example 52],129 % of pre
>10 µM,C[C@@H]1CCCN1Cc1sc(NC(=O)c2cnc(N3CCN(CCC(=O)O)CC3)cn2)nc1-c1cc(C2CC2)cc(C(F)(F)F)c1 [Example 67],126 % of pre
>10 µM,C[C@@H]1CC[C@@H](C)N1Cc1sc(NC(=O)c2cnc(N3CCN(CCC(=O)O)CC3)cn2)nc1-c1cc(F)cc(C(F)(F)F)c1 [Example 119],173 % of pre
